Laboratory results reported in US7807368B2, “Cyclin-dependent kinase inhibitors as targets for opiod growth factor treatment” (priority 2006, dated 2010).
“Also recorded” adds a separate entry of the source.

Key:
[1] = system: BxPC-3 human pancreatic cancer cells; assay: Growth curves of BxPC-3 cells; assay type: cell-based; conditions: 10^-6 M OGF
Protocol: Human pancreatic cancer cell lines BxPC-3, PANC-1, and Capan-2 were obtained from the American Type Culture Collection (Manassas, Va.), and cultured in RPMI, Dulbecco's Modified Medium, or McCoy's 5A medium, respectively. All media were supplemented with 10% fetal bovine serum, 1.2% sodium bicarbonate, and 0.25% antibiotics (5000 units/ml penicillin, 5 μg/ml streptomycin and 10 μg/ml neomycin). OGF was purchased from Sigma-Aldrich (St. Louis, Mo.), dissolved in sterile water, and used at a final concentration of 10^−6 M.
For growth curves, cells were seeded in 6-well plates at an initial density of 2×10^5 cells/well. Fresh media and OGF were added 24 hours after initial seeding, and media and OGF were replaced daily. At appropriate times, the cells were washed with PBS, trypsinized, and viable cell numbers were counted by trypan blue exclusion using a hemacytometer.

Rb protein = assay: Western blot of Rb, phospho-Rb, p105 and p107 in synchronized SCC-1 cells; assay type: cell-based, human
Protocol: Synchronized cells (˜2×10^6) from each treatment were solubilized in 200 μl RIPA buffer (1×PBS, 10 μM IGEPAL, 1 mg/ml SDS, 5 mg/ml deoxycholic acid), containing protease and phosphatase inhibitors (2 μg/ml aprotinin, 3 mg/ml phenylmethyl sulfonyl fluoride (PMSF), 1 mM sodium orthovanidate, 1 μM okadaic acid). Total protein concentrations were measured using the DC protein assay kit (Bio-Rad Laboratories, Hercules, Calif.). Equal amounts of protein (40 μg) were subjected to 10% SDS-PAGE followed by transfer of proteins onto polyvinylidene difluoride (Millipore, Billerica, Mass.) using standard protocols. The following antibodies were purchased from commercial sources: phospho-Rb (Ser795), phospho-Rb (Ser807/811) (Cell Signaling Technology, Beverly, Mass.); phospho-Rb (Thr821) (Biosource, Camarillo, Calif.); Cdk4, cyclin D1, p15, p16, p18, p19 (Santa Cruz Biotechnology, Santa Cruz, Calif.); total Rb, p21, p27 (BD PharMingen, San Diego, Calif.); β-actin (Clone AC-15, Sigma). The following dilutions of primary antibodies were used to detect respective proteins. 1:200 phospho-Rb (Ser795), 1:200 phospho-Rb (Ser807/811); 1:200 phospho-Rb (Thr821); 1:200 Cdk4, 1:200 cyclin D1, 1:100 p16; 1:200 total Rb, 1:200 p21, 1:100 p27. […]
To determine equal loading of total protein samples, blots were reprobed with monoclonal antibody against β-actin at a dilution of 1:2000. […] Means and SE were determined from 3 or more independent experiments.
To quantify expression levels or kinase activity, the optical density of each band was determined by densitometry and analyzed by QuickOne (Bio-Rad Laboratories). […] To report the changes due to OGF treatment, the fold increase was calculated by dividing the normalized value from the OGF treated samples by the normalized value of control samples at each time point; thus, increases due to OGF have values greater than one, and decreases due to OGF have values less than one.

p16/Cdk4 complex = assay: Cdk4 immunoprecipitation, p16/Cdk4 and cyclin D1/Cdk4 complexes in SCC-1 cells; assay type: cell-based, human
Protocol: Cell extracts were subjected to immunoprecipitation using antibodies against Cdk4 and protein A beads (Santa Cruz). Immunoprecipitates were separated on a 15% SDS-PAGE gel, and membrane blots probed with p16 antibodies (1:200), and developed using a chemiluminescence Western blotting detection system. Blots were re-probed with Cdk4 antibody (1:200). Five independent experiments were performed.

CAL-27 cells = assay: Growth curves of CAL-27 cells transfected with p16 siRNA; assay type: cell-based, human
Protocol: The SCC-1 (UM-SCC-1) cell line was obtained from the University of Michigan Cancer Research Laboratory, and CAL-27 and SCC-4 cells were obtained from the American Type Culture Collection (Manassas, Va.). SCC-1 and CAL-27 cells were cultured in DMEM media, whereas SCC-4 cells were grown in 1:1 Hams F-12 DMEM media. All media was supplemented with 10% fetal bovine serum (HyClone, Logan, Utah), 1.2% sodium bicarbonate, and 5000 units/ml penicillin, 5 μg/ml streptomycin and 10 μg/ml neomycin. OGF was purchased from Sigma-Aldrich (St. Louis, Mo.), dissolved in sterile water, and used at a final concentration of 10^−6 M.
(§1) The p16-targeted siRNAs (antisense:5′ […]-3′; sense (SEQ ID NO:5): 5′ […]-3′(SEQ ID NO:6) were obtained as ready-annealed, purified duplex probes (Invitrogen, Carlsbad, Calif.). For transfection, 2×10^5 cells per well were seeded in 6-well plates containing 1 ml of serum-free media without antibiotics. In each well, 20 nM of p16-siRNA or control siRNA solutions in serum-free media were added. Cells were incubated for 4 h at 37° C. prior to the addition of OGF. Cultures were incubated for additional 20 h, and then 1 ml fresh complete media either lacking or containing OGF was added. At the indicated time points, cells were collected for growth curves or Western blotting. Three or more independent experiments were conducted. The control siRNAs were purchased from Ambion.

SCC-1 cells = assay: siRNA knockdown of OGFr, growth of SCC-1 cells; assay type: cell-based, human; conditions: 10^-6 M; for depression of growth: 96 h
Protocol: siRNA knockdown of OGFr. […] For transfection, 5×10^4 cells per well were seeded in 6-well plates containing 1 ml of serum-containing media without antibiotics. In each well, 20 nM OGFr-siRNA or control siRNA solutions in serum-free media were added. Cells were incubated for 4 h at 37° C. prior to the addition of OGF. Cultures were incubated an additional 20 h, and then 1 ml fresh complete media either lacking or containing OGF was added. […] Two independent experiments were conducted. The control siRNAs were purchased from Ambion.

p16 = assay: Western blot of p16, other CKIs and Cdk4 in SCC-1 cells; assay type: cell-based, human
Protocol: Synchronized cells (˜2×10^6) from each treatment were solubilized in 200 μl RIPA buffer (1×PBS, 10 μM IGEPAL, 1 mg/ml SDS, 5 mg/ml deoxycholic acid), containing protease and phosphatase inhibitors (2 μg/ml aprotinin, 3 mg/ml phenylmethyl sulfonyl fluoride (PMSF), 1 mM sodium orthovanidate, 1 μM okadaic acid). Total protein concentrations were measured using the DC protein assay kit (Bio-Rad Laboratories, Hercules, Calif.). Equal amounts of protein (40 μg) were subjected to 10% SDS-PAGE followed by transfer of proteins onto polyvinylidene difluoride (Millipore, Billerica, Mass.) using standard protocols. The following antibodies were purchased from commercial sources: phospho-Rb (Ser795), phospho-Rb (Ser807/811) (Cell Signaling Technology, Beverly, Mass.); phospho-Rb (Thr821) (Biosource, Camarillo, Calif.); Cdk4, cyclin D1, p15, p16, p18, p19 (Santa Cruz Biotechnology, Santa Cruz, Calif.); total Rb, p21, p27 (BD PharMingen, San Diego, Calif.); β-actin (Clone AC-15, Sigma). The following dilutions of primary antibodies were used to detect respective proteins. 1:200 phospho-Rb (Ser795), 1:200 phospho-Rb (Ser807/811); 1:200 phospho-Rb (Thr821); 1:200 Cdk4, 1:200 cyclin D1, 1:100 p16; 1:200 total Rb, 1:200 p21, 1:100 p27. Membranes were probed with secondary anti-rabbit or anti-mouse horseradish peroxidase-conjugated antibodies (GE Healthcare-Amersham Biosciences, Piscataway, N.J.); blots were developed using a chemiluminescence Western blotting detection system (GE Healthcare-Amersham Biosciences).
To determine equal loading of total protein samples, blots were reprobed with monoclonal antibody against β-actin at a dilution of 1:2000. If necessary, membranes were stripped in stripping buffer (62.5 mM Tris-HCl and 100 mM β-mercaptoethanol/2% SDS, pH 6.7) at 50° C. before being re-probed. Means and SE were determined from 3 or more independent experiments.
To quantify expression levels or kinase activity, the optical density of each band was determined by densitometry and analyzed by QuickOne (Bio-Rad Laboratories). Each value was normalized to β-actin from the same blot. To report the changes due to OGF treatment, the fold increase was calculated by dividing the normalized value from the OGF treated samples by the normalized value of control samples at each time point; thus, increases due to OGF have values greater than one, and decreases due to OGF have values less than one.
as §1

## [Met^5]-enkephalin [OGF]
[1]; 48 hours
  cell numbers compared to control cultures: 66%
[1]; 72 hours
  cell numbers compared to control cultures: 55%
[1]; linear regression of growth data
  mean doubling time: 51 h
Rb protein; OGF treatment, Western blot
  phospho-Rb (pT821) levels: did not alter
Rb protein; after 14 h of OGF treatment
  Expression of total Rb protein: not decreased
Rb protein; after exposure to OGF
  Total levels of p105 and p107: no changes
p16/Cdk4 complex; 3, 6, 9, and 12 h, significant (p<0.05) at 9 and 12 h
  level of the p16/Cdk4 complex: elevated at all time points; also recorded: increased at all time points
p16/Cdk4 complex; after treatment with OGF
  level of the cyclin D1/Cdk4 complex: no change
CAL-27 cells
  effect on growth of cells lacking p16: no inhibitory effects
SCC-1 cells; SCC-1 cells subjected to OGFr-siRNA
  effect on growth of OGFr-siRNA cultures: no further effects
SCC-1 cells; control siRNA-treated SCC-1 cells
  depression of growth: 46%
SCC-1 cells; wt SCC-1 cells
  depression of growth: 29%
p16; OGF treatment of SCCHN
  expression of cell cycle inhibitors p15, p18, p19, p21 and p27: no significant effect
p16; following OGF exposure
  expression of Cdk4 protein: did not change
p16; synchronized SCC-1 cells, 3 h, 10^-6 M OGF, 10^-5 M naloxone
  p16 expression: significantly upregulated; also recorded: significantly elevated
